Reference: patent publication US4000299A, “1-(Imidazol-1-yl)-1-[4-(4-chlorophenyl)phenoxy]-3,3-dimethylbutan-2-one, its salts and a process for their use” (Bayer Aktiengesellschaft, priority 1974, dated 1976)
In brackets after ≈: the same amount, converted by molar mass. Where two headings read alike, the source gives them in different places.

What was measured:
Aspergillus spec. = assay: series dilution test, MIC; format: cell-based
Trich. ment. = assay: series dilution test, MIC; format: cell-based
Candida albicans [1] = assay: series dilution test, MIC; format: cell-based
Torulopsis glab. = assay: series dilution test, MIC; format: cell-based; conditions: Table A
Microsporon canis = assay: series dilution test, MIC; format: cell-based; conditions: for MIC: read-out: MIC values
Cryptococcus neof. = assay: series dilution test, MIC; format: cell-based; conditions: Table A
Pityrosporum ovale = assay: series dilution test, MIC; format: cell-based; conditions: Table A; for MIC: Malassezia furfur
Coccidioides immitis = assay: microbe, parasite or virus in culture; format: cell-based; conditions: for MIC: read-out: MIC values; for MIC values: Table A
Trichomonas vaginalis = assay: series dilution test, MIC; format: cell-based; conditions: Table A
Sporothrix Schenckii = assay: series dilution test, MIC; format: cell-based; conditions: Table A
Staph. aureus = assay: series dilution test, MIC; format: cell-based; conditions: Table A; for MIC: Staphylococcus aureus
Candida albicans [2] = assay: experimental candidosis in mice, oral administration; format: in vivo, White mice of the CF1 SPF strain
Method: I. on candidosis in mice.
White mice of the CF1 SPF strain are infected with 1-3 × 10^6 Candida albicans cells intravenously by puncture of the tail vein. Untreated control animals die from the 3rd to the 6th day after infection as a result of the candidosis of the organs which develops. If the preparations claimed are given orally in doses of 2 × 6.25 - 2 × 150 mg/kg of body weight, starting from the day of infection and up to the 5th day after infection, the following survival rates are observed: […]

Microsporon felinum = assay: series dilution test, MIC; format: cell-based; conditions: Table B
[3] = pharmacokinetics after oral administration; format: in vivo; conditions: serum, 50 mg/kg of body weight, mice and guinea pigs, read-out: serum peak concentrations
Method: c. Guideline data on the pharmacokinetics after oral administration. The preparations claimed are resorbed well on oral administration to mice and guinea pigs and after doses of 50 mg/kg of body weight give serum peak concentrations of 4-6 γ/ml for the case of the hydrochloride.

[4] = 2 × 6.25 mg/kg of body weight, 6.25 mg/kg
[5] = 2 × 12.5 mg/kg of body weight, 12.5 mg/kg
[6] = 2 × 25 mg/kg of body weight, 25 mg/kg

With CC(C)(C)C(=O)C(Cn1ccnc1)Oc1ccccc1-c1ccccc1 (stereo not drawn) the MIC (Aspergillus spec.; Table B) was 8 µg/mL (≈ 23 µM), the MIC (Trich. ment.; Table B, Trichophyton ment.) was 8 µg/mL (≈ 23 µM) and the MIC (Candida albicans [1]; Table B) was 4 µg/mL (≈ 11.5 µM).

In the case of CC(C)(C)C(=O)C(Oc1ccc(-c2ccc(Cl)cc2)cc1)n1ccnc1 (stereo not drawn) [drawing 4], the MIC (Aspergillus spec.; Table A) is reported as < 1 µg/mL, the MIC (Torulopsis glab.) is reported as 2 µg/mL (≈ 5.42 µM) and the MIC (Microsporon canis; Table A, Microsporon canis) is reported as < 1 µg/mL. The MIC (Trich. ment.; Table A, Trich. ment.) was < 1 µg/mL, the MIC (Cryptococcus neof.) was 1 to 2 µg/mL (≈ 2.71 to 5.42 µM) and the MIC (Candida albicans [1]; Table A) was 2 to 4 µg/mL (≈ 5.42 to 10.8 µM). For the same compound, the MIC (Pityrosporum ovale) was < 1 µg/mL, the MIC (Coccidioides immitis) was 0.1 µg/mL (≈ 0.271 µM) and the MIC (Trichomonas vaginalis) was 250 µg/mL (≈ 678 µM). For the same compound, the MIC values (Sporothrix Schenckii) was 0.1 µg/mL (≈ 0.271 µM) and the MIC (Staph. aureus) was 8 µg/mL (≈ 21.7 µM).

With C[C@@H]1[C@H](O)[C@@H](C)/C=C/C=C/CC/C=C/C=C/C=C/C=C/C(O[C@H]2O[C@H](C)[C@@H](O)[C@H](N)[C@@H]2O)CC2O[C@](O)(CC(O)C(O)CCC(O)CC(O)CC(O)CC(=O)O[C@H]1C)CC(O)C2C(=O)O (stereo partly drawn) [Nystatin, nystatin] the “Survival rates on the 6th day after infection” value (“Survival rates on the 6th day” for short) (Candida albicans [2]; 2 × 6.25 mg/kg of body weight) was < 10%, the “Survival rates on the 6th day” value (Candida albicans [2]; 2 × 12.5 mg/kg of body weight) was < 10% and the “Survival rates on the 6th day” value (Candida albicans [2]; 2 × 25 mg/kg of body weight) was < 10%. For the same compound, the “Survival rates on the 6th day” value (Candida albicans [2]; 2 × 50 mg/kg of body weight) was < 10%, the “Survival rates on the 6th day” value (Candida albicans [2]; 2 × 100 mg/kg of body weight) was 30% and the “Survival rates on the 6th day” value (Candida albicans [2]; 2 × 150 mg/kg of body weight) was 50%. The MIC values (Aspergillus spec.; Table A) was 40 to 100 µg/mL, the MIC values (Torulopsis glab.) was 5 µg/mL (≈ 5.4 µM) and the MIC values (Microsporon canis; Table A, Microsporon canis) was 20 to 40 µg/mL. The MIC values (Trich. ment.; Table A, Trich. ment.) was 20 µg/mL (≈ 21.6 µM), the MIC values (Cryptococcus neof.) was 4 to 10 µg/mL and the MIC values (Candida albicans [1]; Table A) was 5 µg/mL (≈ 5.4 µM). For the same compound, the MIC values (Coccidioides immitis) was 40 µg/mL (≈ 43.2 µM), the MIC values (Trichomonas vaginalis) was > 1,000 γ/ml and the MIC values (Sporothrix Schenckii) was 40 µg/mL (≈ 43.2 µM). The MIC values (Staph. aureus) was > 100 µg/mL.

With COC1=CC(=O)C[C@@H](C)[C@]12Oc1c(Cl)c(OC)cc(OC)c1C2=O [Griseofulvin, griseofulvin] the MIC (Aspergillus spec.; Table A) was 40 to 100 µg/mL (≈ 113 to 283 µM), the MIC (Torulopsis glab.) was > 100 µg/mL and the MIC (Microsporon canis) was 5 to 10 µg/mL (≈ 14.2 to 28.3 µM). For the same compound, the MIC (Trich. ment.; Table A, Trich. ment.) was 5 to 10 µg/mL (≈ 14.2 to 28.3 µM), the MIC (Cryptococcus neof.) was > 100 µg/mL and the MIC (Candida albicans [1]; Table A) was > 100 µg/mL. For the same compound, the MIC (Pityrosporum ovale) was > 100 µg/mL, the MIC (Coccidioides immitis) was > 100 µg/mL and the MIC (Trichomonas vaginalis) was > 1000 µg/mL. The MIC (Sporothrix Schenckii; Sporothrix schenckii) was > 100 µg/mL and the MIC (Staph. aureus) was > 100 µg/mL.

Work on CC(C)(C)C(=O)C(Cn1ccnc1)Oc1ccc(Cl)cc1 (stereo not drawn) yielded an MIC (Aspergillus spec.; Table B) of 8 µg/mL (≈ 26.1 µM), an MIC (Trich. ment.; Table B, Trichophyton ment.) of 4 µg/mL (≈ 13 µM) and an MIC (Candida albicans [1]; Table B) of 4 µg/mL (≈ 13 µM).

O=C(c1ccccc1)C(Oc1c(Cl)cccc1Cl)n1ccnc1 (stereo not drawn) gave an MIC (Microsporon felinum) of 40 µg/mL (≈ 115 µM), an MIC (Aspergillus spec.; Table B) of 100 µg/mL (≈ 288 µM) and an MIC (Trich. ment.; Table B, Trichophyton ment.) of 4 µg/mL (≈ 11.5 µM). It also gave an MIC (Candida albicans [1]; Table B) of 4 µg/mL (≈ 11.5 µM).

Compound CC(C)(C)C(=O)C(Oc1ccc(-c2ccc(Cl)cc2)cc1)n1ccnc1.Cl (stereo not drawn) [Example 1, 1-(imidazol-1-yl)-1-[4-(4-chlorophenyl)phenoxy]-3,3-dimethyl-butan-2-one hydrochloride] has a Cmax [3] of 4000 to 6000 ng/mL.

Compound CC(C)(C)C(=O)C(Cn1ccnc1)Oc1ccc(F)cc1 (stereo not drawn) has an MIC (Aspergillus spec.; Table B) of 4 µg/mL (≈ 13.8 µM), an MIC (Trich. ment.; Table B, Trichophyton ment.) of 8 µg/mL (≈ 27.6 µM) and an MIC (Candida albicans [1]; Table B) of 4 µg/mL (≈ 13.8 µM).

CC(C)(C)C(=O)C(Cn1ccnc1)Oc1ccc(Br)cc1 (stereo not drawn) showed an MIC (Aspergillus spec.; Table B) of 4 µg/mL (≈ 11.4 µM), an MIC (Trich. ment.; Table B, Trichophyton ment.) of 8 µg/mL (≈ 22.8 µM) and an MIC (Candida albicans [1]; Table B) of 4 µg/mL (≈ 11.4 µM).

Work on O=C(c1ccccc1)C(Oc1ccc(Cl)cc1)(c1ccccc1)n1ccnc1 (stereo not drawn) yielded an MIC (Microsporon felinum) of 40 µg/mL (≈ 103 µM), an MIC (Aspergillus spec.; Table B) of 10 µg/mL (≈ 25.7 µM) and an MIC (Trich. ment.; Table B, Trichophyton ment.) of 10 µg/mL (≈ 25.7 µM). It also gave an MIC (Candida albicans [1]; Table B) of 10 µg/mL (≈ 25.7 µM).

Work on O=C(c1ccccc1)C(Oc1cccc(Cl)c1)n1ccnc1 (stereo not drawn) yielded an MIC (Microsporon felinum) of 40 µg/mL (≈ 128 µM), an MIC (Aspergillus spec.; Table B) of 40 µg/mL (≈ 128 µM) and an MIC (Trich. ment.; Table B, Trichophyton ment.) of 4 µg/mL (≈ 12.8 µM). It also gave an MIC (Candida albicans [1]; Table B) of 10 µg/mL (≈ 32 µM).

Work on OC(O)(c1ccccc1)C(Oc1cccc(Cl)c1)n1ccnc1 (stereo not drawn) yielded an MIC (Microsporon felinum) of 40 µg/mL (≈ 121 µM), an MIC (Aspergillus spec.; Table B) of 40 µg/mL (≈ 121 µM) and an MIC (Trich. ment.; Table B, Trichophyton ment.) of 4 µg/mL (≈ 12.1 µM). For the same compound, the MIC (Candida albicans [1]; Table B) was 4 µg/mL (≈ 12.1 µM).

With CC(C)(C)C(=O)C(Oc1ccc(-c2ccc(Cl)cc2)cc1)n1ccnc1 (stereo not drawn) [drawing 5] the MIC values (Aspergillus spec.; Table A) was < 1 µg/mL, the MIC values (Torulopsis glab.) was 2 µg/mL (≈ 5.42 µM) and the MIC values (Microsporon canis; Table A, Microsporon canis) was < 1 µg/mL. The MIC values (Trich. ment.; Table A, Trich. ment.) was < 1 µg/mL, the MIC values (Cryptococcus neof.) was 1 to 2 µg/mL and the MIC values (Candida albicans [1]; Table A) was 2 µg/mL (≈ 5.42 µM). For the same compound, the MIC values (Pityrosporum ovale) was < 1 µg/mL, the MIC values (Coccidioides immitis) was 0.1 µg/mL (≈ 0.271 µM) and the MIC values (Trichomonas vaginalis) was 250 µg/mL (≈ 678 µM). The MIC values (Sporothrix Schenckii) was 0.5 µg/mL (≈ 1.36 µM) and the MIC values (Staph. aureus) was 4 µg/mL (≈ 10.8 µM).

For CC(C)(C)C(=O)C(Oc1ccc(-c2ccc(Cl)cc2)cc1)n1ccnc1 (stereo not drawn) [drawing 14], the “Survival rates on the 6th day” value (Candida albicans [2]; [4]) was 55%, the “Survival rates on the 6th day” value (Candida albicans [2]; [5]) was 70% and the “Survival rates on the 6th day” value (Candida albicans [2]; [6]) was 80%. The “Survival rates on the 6th day” value (Candida albicans [2]; 2 × 50 mg/kg of body weight) was 100%, the “Survival rates on the 6th day” value (Candida albicans [2]; 2 × 100 mg/kg of body weight) was 100% and the “Survival rates on the 6th day” value (Candida albicans [2]; 2 × 150 mg/kg of body weight) was 100%.

For CC(C)(C)C(=O)C(Oc1ccc(-c2ccc(Cl)cc2)cc1)n1ccnc1 (stereo not drawn) [drawing 15], the “Survival rates on the 6th day” value (Candida albicans [2]; [4]) was 95%, the “Survival rates on the 6th day” value (Candida albicans [2]; [5]) was 95% and the “Survival rates on the 6th day” value (Candida albicans [2]; [6]) was 100%. The “Survival rates on the 6th day” value (Candida albicans [2]; 2 × 50 mg/kg of body weight) was 100%, the “Survival rates on the 6th day” value (Candida albicans [2]; 2 × 100 mg/kg of body weight) was 100% and the “Survival rates on the 6th day” value (Candida albicans [2]; 2 × 150 mg/kg of body weight) was 100%.
